Assay results from the NIST ThermoML archive (doi:10.1021/je200886j).

Legend:
[1] = 101 kPa, Liquid; for mass density: Pycnometric method
[2] = wn = mass fraction of the nth substance listed; settings: 101 kPa, Liquid; for mass density: Pycnometric method

CCCCn1cc[n+](C)c1.F[B-](F)(F)F [1-butyl-3-methylimidazolium tetrafluoroborate]
[1]
Settings | mass density [kg/m3] | viscosity [mPa·s]
298.15 K | 1200.6 | 93.81
303.15 K | 1197.7 | 71.76
308.15 K | 1194.8 | 56.41
313.1 K | 1191.5 | 45.6
318.15 K | 1188.4 | 37.32

CCCCn1cc[n+](C)c1.F[B-](F)(F)F [1-butyl-3-methylimidazolium tetrafluoroborate] + CN1CCCC1=O
[2], w1 = 1
Settings | mass density [kg/m3] | viscosity [mPa·s]
298.15 K | 1200.6 | 93.81
303.15 K | 1197.7 | 71.76
308.15 K | 1194.8 | 56.41
313.1 K | 1191.5 | 45.6
318.15 K | 1188.4 | 37.32

CN1CCCC1=O [N-methylpyrrolidone]
[1]
Settings | mass density [kg/m3] | viscosity [mPa·s]
298.15 K | 1028.3 | 1.683
303.15 K | 1024.5 | 1.558
308.15 K | 1020.1 | 1.47
313.1 K | 1015.8 | 1.337
318.15 K | 1011.7 | 1.248

CN1CCCC1=O [N-methylpyrrolidone] + CCCCn1cc[n+](C)c1.F[B-](F)(F)F
[2]
Settings | mass density, 298.15 K [kg/m3] | mass density, 303.15 K [kg/m3] | mass density, 308.15 K [kg/m3] | mass density, 313.1 K [kg/m3] | mass density, 318.15 K [kg/m3] | viscosity, 298.15 K [mPa·s] | viscosity, 303.15 K [mPa·s] | viscosity, 308.15 K [mPa·s] | viscosity, 313.1 K [mPa·s] | viscosity, 318.15 K [mPa·s]
w2 = 0 | 1028.3 | 1024.5 | 1020.1 | 1015.8 | 1011.7 | 1.683 | 1.558 | 1.47 | 1.337 | 1.248
w2 = 0.5 | 1115.6 | 1111.8 | 1107.9 | 1104.1 | 1100.3 | 8.196 | 7.291 | 6.382 | 5.63 | 5.045
w2 = 0.6999 | 1148.8 | 1145.6 | 1142 | 1138.3 | 1135 | 19.33 | 16.03 | 13.51 | 11.63 | 10.07
w2 = 0.8981 | 1182 | 1179.4 | 1176.2 | 1173.1 | 1170.1 | 49.46 | 39.75 | 32.43 | 26.93 | 22.47
